In PubChem BioAssay AID180 (DTP/NCI, 2004):
Values joined by “and” are separate entries in the source; they are usually repeats but may differ in a detail not shown here. Equal entries are not always repeated.

Test system: BDF1 mice, Adenocarcinoma 755 s.c., tumor weight T/C
Test: NCI In Vivo Anticancer Drug Screen. Data for tumor model Adenocarcinoma 755 (subcutaneous) in B6D2F1 (BDF1) mice
Conditions: endpoint: mean tumor weight, higher = larger tumour
Method in brief: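 In vivo antitumor screen on a transplantable tumor line. Result equals the measure in compound-treated animals divided by the same measure in vehicle controls.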

SMILES: CC(Sc1nc(N)nc2nc[nH]c12)C(=O)O (stereo unspecified)
- T/C (dose: 37.5 mg/kg/injection, schedule: Q01DX011 (ip), vehicle: saline): 81 % of control
- T/C (dose: 75.0 mg/kg/injection, schedule: Q01DX011 (ip), vehicle: saline): 74 % of control
- T/C (dose: 150.0 mg/kg/injection, schedule: Q01DX011 (ip), vehicle: saline): 45 % of control
- T/C (dose: 300.0 mg/kg/injection, schedule: Q01DX011 (ip), vehicle: saline): 12 % of control

SMILES: C[C@H]1C[C@H]2[C@@H]3CC[C@](O)(C(=O)CF)[C@@]3(C)C[C@H](O)[C@]2(F)[C@@]2(C)C=CC(=O)C=C12
- T/C (dose: 0.62 mg/kg/injection, schedule: Q01DX011 (sc), vehicle: steriod suspending solution): 89 % of control
- T/C (dose: 1.0 mg/kg/injection, schedule: Q01DX011 (sc), vehicle: steriod suspending solution): 76 % of control
- T/C (dose: 1.25 mg/kg/injection, schedule: Q01DX011 (sc), vehicle: steriod suspending solution): 69 % of control
- T/C (dose: 10.0 mg/kg/injection, schedule: Q01DX011 (sc), vehicle: steriod suspending solution): 16 % of control and 29 % of control and 33 % of control
- T/C (dose: 20.0 mg/kg/injection, schedule: Q01DX011 (sc), vehicle: steriod suspending solution): 18 % of control and 27 % of control
- T/C (dose: 40.0 mg/kg/injection, schedule: Q01DX011 (sc), vehicle: steriod suspending solution): 11 % of control and 14 % of control
- T/C (dose: 80.0 mg/kg/injection, schedule: Q01DX011 (sc), vehicle: steriod suspending solution): 14 % of control
- T/C (dose: 160.0 mg/kg/injection, schedule: Q01DX011 (sc), vehicle: steriod suspending solution): 4 % of control

SMILES: Nc1nc(SCC(=O)c2ccc(Cl)cc2)c2ncn(C3OC(CO)C(O)C3O)c2n1 (stereo unspecified)
- T/C (dose: 37.5 mg/kg/injection, schedule: Q01DX011 (ip), vehicle: methylcellulose (MC)): 62 % of control
- T/C (dose: 75.0 mg/kg/injection, schedule: Q01DX011 (ip), vehicle: methylcellulose (MC)): 44 % of control
- T/C (dose: 150.0 mg/kg/injection, schedule: Q01DX011 (ip), vehicle: methylcellulose (MC)): 31 % of control
- T/C (dose: 300.0 mg/kg/injection, schedule: Q01DX011 (ip), vehicle: methylcellulose (MC)): 24 % of control

SMILES: Nc1nc(SCc2ccccc2)c2[nH]cnc2n1
- T/C (dose: 0.37 mg/kg/injection, schedule: Q01DX011 (ip), vehicle: carboxymethylcellulose (CMC)): 114 % of control
- T/C (dose: 0.37 mg/kg/injection, schedule: Q01DX011 (oral), vehicle: carboxymethylcellulose (CMC)): 71 % of control
- T/C (dose: 0.75 mg/kg/injection, schedule: Q01DX011 (ip), vehicle: carboxymethylcellulose (CMC)): 38 % of control
- T/C (dose: 0.75 mg/kg/injection, schedule: Q01DX011 (oral), vehicle: carboxymethylcellulose (CMC)): 52 % of control
- T/C (dose: 1.0 mg/kg/injection, schedule: Q#A X021 (ip), vehicle: carboxymethylcellulose (CMC)): 45 % of control
- T/C (dose: 1.25 mg/kg/injection, schedule: Q01DX011 (ip), vehicle: carboxymethylcellulose (CMC)): 53 % of control
- T/C (dose: 1.5 mg/kg/injection, schedule: Q01DX011 (im), vehicle: carboxymethylcellulose (CMC)): 69 % of control
- T/C (dose: 1.5 mg/kg/injection, schedule: Q01DX011 (ip), vehicle: carboxymethylcellulose (CMC)): 41 % of control
- T/C (dose: 1.5 mg/kg/injection, schedule: Q01DX011 (oral), vehicle: carboxymethylcellulose (CMC)): 61 % of control
- T/C (dose: 1.75 mg/kg/injection, schedule: Q01DX001 (ip), vehicle: carboxymethylcellulose (CMC)): 94 % of control and 114 % of control
- T/C (dose: 2.0 mg/kg/injection, schedule: Q01DX006 (iv), vehicle: carboxymethylcellulose (CMC)): 91 % of control
- T/C (dose: 2.0 mg/kg/injection, schedule: Q01DX011 (im), vehicle: carboxymethylcellulose (CMC)): 38 % of control
- T/C (dose: 2.0 mg/kg/injection, schedule: Q01DX011 (ip), vehicle: carboxymethylcellulose (CMC)): 33 % of control
- T/C (dose: 2.0 mg/kg/injection, schedule: Q01DX011 (sc), vehicle: carboxymethylcellulose (CMC)): 56 % of control
- T/C (dose: 2.0 mg/kg/injection, schedule: Q#A X021 (ip), vehicle: carboxymethylcellulose (CMC)): 15 % of control
- T/C (dose: 2.5 mg/kg/injection, schedule: Q01DX011 (ip), vehicle: carboxymethylcellulose (CMC)): 32 % of control
- T/C (dose: 3.0 mg/kg/injection, schedule: Q01DX011 (im), vehicle: carboxymethylcellulose (CMC)): 12 % of control
- T/C (dose: 3.0 mg/kg/injection, schedule: Q01DX011 (ip), vehicle: carboxymethylcellulose (CMC)): 5 % of control
- T/C (dose: 3.0 mg/kg/injection, schedule: Q01DX011 (oral), vehicle: carboxymethylcellulose (CMC)): 19 % of control
- T/C (dose: 3.5 mg/kg/injection, schedule: Q01DX001 (ip), vehicle: carboxymethylcellulose (CMC)): 112 % of control and 115 % of control
- T/C (dose: 4.0 mg/kg/injection, schedule: Q01DX006 (iv), vehicle: carboxymethylcellulose (CMC)): 40 % of control
- T/C (dose: 4.0 mg/kg/injection, schedule: Q01DX011 (im), vehicle: carboxymethylcellulose (CMC)): 10 % of control
- T/C (dose: 4.0 mg/kg/injection, schedule: Q01DX011 (ip), vehicle: carboxymethylcellulose (CMC)): 8 % of control
- T/C (dose: 4.0 mg/kg/injection, schedule: Q01DX011 (sc), vehicle: carboxymethylcellulose (CMC)): 13 % of control
- T/C (dose: 7.0 mg/kg/injection, schedule: Q01DX001 (ip), vehicle: carboxymethylcellulose (CMC)): 20 % of control and 33 % of control
- T/C (dose: 8.0 mg/kg/injection, schedule: Q01DX006 (iv), vehicle: carboxymethylcellulose (CMC)): 13 % of control
- T/C (dose: 8.0 mg/kg/injection, schedule: Q01DX011 (im), vehicle: carboxymethylcellulose (CMC)): 3 % of control
- T/C (dose: 8.0 mg/kg/injection, schedule: Q01DX011 (ip), vehicle: carboxymethylcellulose (CMC)): 3 % of control
- T/C (dose: 8.0 mg/kg/injection, schedule: Q01DX011 (sc), vehicle: carboxymethylcellulose (CMC)): 4 % of control
- T/C (dose: 8.0 mg/kg/injection, schedule: Q03DX004 (ip), vehicle: carboxymethylcellulose (CMC)): 25 % of control
- T/C (dose: 14.0 mg/kg/injection, schedule: Q07DX002 (ip), vehicle: carboxymethylcellulose (CMC)): 34 % of control
- T/C (dose: 16.0 mg/kg/injection, schedule: Q01DX006 (iv), vehicle: carboxymethylcellulose (CMC)): 7 % of control
- T/C (dose: 16.0 mg/kg/injection, schedule: Q01DX011 (im), vehicle: carboxymethylcellulose (CMC)): 2 % of control
- T/C (dose: 16.0 mg/kg/injection, schedule: Q01DX011 (ip), vehicle: carboxymethylcellulose (CMC)): 3 % of control
- T/C (dose: 16.0 mg/kg/injection, schedule: Q01DX011 (sc), vehicle: carboxymethylcellulose (CMC)): 3 % of control
- T/C (dose: 16.0 mg/kg/injection, schedule: Q03DX004 (ip), vehicle: carboxymethylcellulose (CMC)): 8 % of control
- T/C (dose: 24.0 mg/kg/injection, schedule: Q01DX006 (iv), vehicle: carboxymethylcellulose (CMC)): 4 % of control
- T/C (dose: 24.0 mg/kg/injection, schedule: Q01DX011 (im), vehicle: carboxymethylcellulose (CMC)): 4 % of control
- T/C (dose: 24.0 mg/kg/injection, schedule: Q01DX011 (ip), vehicle: carboxymethylcellulose (CMC)): 3 % of control
- T/C (dose: 24.0 mg/kg/injection, schedule: Q01DX011 (sc), vehicle: carboxymethylcellulose (CMC)): 3 % of control
- T/C (dose: 28.0 mg/kg/injection, schedule: Q01DX001 (ip), vehicle: carboxymethylcellulose (CMC)): 12 % of control
- T/C (dose: 28.0 mg/kg/injection, schedule: Q07DX002 (ip), vehicle: carboxymethylcellulose (CMC)): 30 % of control
- T/C (dose: 32.0 mg/kg/injection, schedule: Q01DX006 (iv), vehicle: carboxymethylcellulose (CMC)): 5 % of control
- T/C (dose: 32.0 mg/kg/injection, schedule: Q01DX011 (im), vehicle: carboxymethylcellulose (CMC)): 3 % of control
- T/C (dose: 48.0 mg/kg/injection, schedule: Q01DX011 (sc), vehicle: carboxymethylcellulose (CMC)): 2 % of control
- T/C (dose: 56.0 mg/kg/injection, schedule: Q01DX001 (ip), vehicle: carboxymethylcellulose (CMC)): 10 % of control
- T/C (dose: 56.0 mg/kg/injection, schedule: Q07DX002 (ip), vehicle: carboxymethylcellulose (CMC)): 18 % of control
- T/C (dose: 64.0 mg/kg/injection, schedule: Q01DX011 (sc), vehicle: carboxymethylcellulose (CMC)): 3 % of control
- T/C (dose: 112.0 mg/kg/injection, schedule: Q01DX001 (ip), vehicle: carboxymethylcellulose (CMC)): 10 % of control
- T/C (dose: 112.0 mg/kg/injection, schedule: Q07DX002 (ip), vehicle: carboxymethylcellulose (CMC)): 1 % of control
